# Data from US10669240B2, “5-substituted indazole-3-carboxamides and preparation and use thereof” (Samumed, LLC, priority 2014, dated 2020).
# How the values were obtained:
# Format in all cases: cell-based
# [1] = target: DYRK1A (Homo sapiens (Human), UniProt Q13627); experiment: DYRK1A activity Tau assay: pSer396 Tau in SH-SY5Y cells by ELISA / western blot; conditions: overnight (16-18 h) exposure
# Text: In another example, in vitro assays for DYRK1A biological activity may be used, e.g. regulation of microtubule-associated protein tau (MAPT/Tau) phosphorylation in neuronal cell line such as the human SH-SY5Y neuroblastoma cell line. Assays for DYRK1a-regulated level of phosphorylation can include monitoring levels of basal pSer396 Tau, which can be measured, for example, by serial dilutions of a candidate inhibitor composition using a ten micromolar top concentration and detected by ELISA or Western Blotting. An exemplary assay for DYRK-1a-regulated phosphorylation uses the SH-SY5Y cells cultured in a 96 well plate format for a period of time sufficient to stabilize microtubules and Tau phosphorylation, usually at least 2 days, then treated with a 1/3 serial dilution of compounds overnight and lysed. The cell lysate is resolved by SDS PAGE, then transferred to nitrocellulose and probed with an antibody specific for pSer396 Tau.
# In a further example, the activity of a candidate compound can be measured by ELISA by adding the lysate mentioned above onto total Tau-coated plates and detected with a specific pSer396 antibody.
# [2] = tested on: primary human mesenchymal stem cells (hMSCs); experiment: Chondrogenesis assay in primary human mesenchymal stem cells, nodule count vs TGF-β3 positive control; conditions: 6 days; for Conc (nM) of Max. activity: 6-point dose-response 2700 nM to 10 nM, dose at which maximum chondrogenesis activity was reached; for Max. Activity as % TGF-β3 activity: relative to TGF-β3 (10 ng/mL) positive control; for Conc (nM) of 100% TGF-β3 activity: concentration required to induce chondrogenesis equivalent to TGF-β3 (10 ng/mL)
# Text: The above synthesized compounds were screened using primary human mesenchymal stem cells (hMSCs) to determine their ability to induce chondrogenesis (process by which cartilage is developed).
# Human Mesenchymal Stem Cell Culture:
# Primary human mesenchymal stem cells (hMSCs) were purchased from Lonza (Walkersville, Md.) and expanded in Mesenchymal Stem Cell Growth Media (Lonza). Cells between passage 3 and 6 were used for the experiments.
# Number of nodules in each well was normalized to the average of 3 DMSO treated wells on the same plate using Excel (Microsoft Inc.). The normalized averages (fold change over DMSO) of 3 replicate wells for each compound concentration were calculated. Due to solubility limitations of some of the compounds, curve fitting was incomplete leading to inaccurate EC50 determinations.
# Using TGF-β3 as a positive control, the concentration of test compounds required to induce equivalent levels of chondrogenesis is reported. In addition, the maximum activity of each compound and the respective dose that each compound reached maximum chondrogenesis activity is reported.
# [3] = tested on: Wnt activity (Wnt-responsive SP5 promoter luciferase reporter in SW480 cells); experiment: Wnt activity reporter assay: SW480 cells with SP5 promoter-driven firefly luciferase; conditions: Homo sapiens, 24 h after compound addition, read-out: Wnt inhibition
# In short: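 SW480 cells (APC-mutant colon line) stably carrying a lentiviral SP5-promoter (eight TCF/LEF sites) firefly luciferase reporter were plated at ~10,000 cells/well. Luminescence was normalized to DMSO-only cells and used for IC50.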
SMILES,EC50 [1] [nM],Conc (nM) of Max. activity [2] [nM],Max. Activity as % TGF-β3 activity [2] [%],Conc (nM) of 100% TGF-β3 activity [2] [nM],IC50 [3] [nM]
"O=C(Nc1cccc2cccnc12)c1n[nH]c2ccc(-c3cccnc3)cc12 [Compound 43, 5-(Pyridin-3-yl)-N-(quinolin-8-yl)-1H-indazole-3-carboxamide]",2200,100,38,,
"O=C(Nc1ccnc(C(F)(F)F)c1)c1n[nH]c2ccc(-c3cccnc3)cc12 [Compound 45, 5-(Pyridin-3-yl)-N-(2-(trifluoromethyl)pyridin-4-yl)-1H-indazole-3-carboxamide]",38,900,114,900,
"O=C(Nc1ccc(N2CC(F)(F)C2)nc1)c1n[nH]c2ccc(-c3cncc(CN4CCCCC4)c3)cc12 [Compound 71, N-(6-(3,3-Difluoroazetidin-1-yl)pyridin-3-yl)-5-(5-(piperidin-1-ylmethyl)pyridin-3-yl)-1H-indazole-3-carboxamide]",2,900,110,900,
"COc1cc(NC(=O)c2n[nH]c3ccc(-c4cncc(CN5CCCCC5)c4)cc23)ccn1 [Compound 78, N-(2-Methoxypyridin-4-yl)-5-(5-(piperidin-1-ylmethyl)pyridin-3-yl)-1H-indazole-3-carboxamide]",2,900,79,,
"CC(C)N1CCC(NC(=O)c2n[nH]c3ccc(-c4cccnc4)cc23)CC1 [Compound 90, N-(1-Isopropylpiperidin-4-yl)-5-(pyridin-3-yl)-1H-indazole-3-carboxamide]",15,2700,169,2700,
"CC(C)CN1CCC(NC(=O)c2n[nH]c3ccc(-c4cccnc4)cc23)CC1 [Compound 91, N-(1-Isobutylpiperidin-4-yl)-5-(pyridin-3-yl)-1H-indazole-3-carboxamide]",11,2700,120,2700,
"Cc1ncc(NC(=O)c2n[nH]c3ccc(-c4cccnc4)cc23)cn1 [Compound 97, N-(2-Methylpyrimidin-5-yl)-5-(pyridin-3-yl)-1H-indazole-3-carboxamide]",556,2700,98,2700,
"Cc1ncc(NC(=O)c2n[nH]c3ccc(-c4cncc(CN5CCCCC5)c4)cc23)cn1 [Compound 98, N-(2-Methylpyrimidin-5-yl)-5-(5-(piperidin-1-ylmethyl)pyridin-3-yl)-1H-indazole-3-carboxamide]",1,2700,161,2700,
"O=C(Nc1cccnc1)c1n[nH]c2cc(F)c(-c3cccnc3)cc12 [Compound 99, 6-Fluoro-N,5-di(pyridin-3-yl)-1H-indazole-3-carboxamide]",878,2700,64,,
"O=C(Nc1ccnc(N2CCCCC2)c1)c1n[nH]c2ccc(-c3cccnc3)cc12 [Compound 103, N-(2-(Piperidin-1-yl)pyridin-4-yl)-5-(pyridin-3-yl)-1H-indazole-3-carboxamide]",5,2700,130,2700,
"CC(C)NC(=O)c1n[nH]c2ccc(-c3cncc(CN4CCCC4)c3)cc12 [Compound 129, N-Isopropyl-5-(5-(pyrrolidin-1-ylmethyl)pyridin-3-yl)-1H-indazole-3-carboxamide]",42,2700,108,2700,
"O=C(NC1CCCCC1)c1n[nH]c2ccc(-c3cncc(N4CCCC4)c3)cc12 [Compound 200, N-Cyclohexyl-5-(5-(pyrrolidin-1-yl)pyridin-3-yl)-1H-indazole-3-carboxamide]",58,2700,138,2700,
"C#CCN1CCC(NC(=O)c2n[nH]c3ccc(-c4cccc(F)c4F)cc23)CC1 [Compound 367, 5-(2,3-Difluorophenyl)-N-(1-(prop-2-yn-1-yl)piperidin-4-yl)-1H-indazole-3-carboxamide]",35,2700,65,,
"O=C(Nc1cccnc1)c1n[nH]c2cc(F)c(-c3cncc(CN4CCCCC4)c3)cc12 [Compound 1153, 6-Fluoro-5-(5-(piperidin-1-ylmethyl)pyridin-3-yl)-N-(pyridin-3-yl)-1H-indazole-3-carboxamide]",1,2700,146,900,
"O=C(NC1CC1)c1n[nH]c2ccc(-c3cncnc3)cc12 [Compound 1269, N-Cyclopropyl-5-(pyrimidin-5-yl)-1H-indazole-3-carboxamide]",76,2700,53,,
"O=C(Nc1ccc(CN2CCCC2)cc1)c1n[nH]c2ccc(-c3cncc(F)c3)cc12 [Compound 1329, 5-(5-Fluoropyridin-3-yl)-N-(4-(pyrrolidin-1-ylmethyl)phenyl)-1H-indazole-3-carboxamide]",1,,,,1700
"O=C(Nc1ccc(CN2CCCC2)cc1)c1n[nH]c2ccc(-c3cncc(Cl)c3)cc12 [Compound 1330, 5-(5-Chloropyridin-3-yl)-N-(4-(pyrrolidin-1-ylmethyl)phenyl)-1H-indazole-3-carboxamide]",3,,,,5500
"Cc1cc2[nH]nc(C(=O)Nc3ccc(CN4CCCC4)cc3)c2cc1-c1cccnc1 [Compound 1331, 6-Methyl-5-(pyridin-3-yl)-N-(4-(pyrrolidin-1-ylmethyl)phenyl)-1H-indazole-3-carboxamide]",17,,,,1400
"O=C(Nc1cc(CN2CCCC2)ccc1Cl)c1n[nH]c2ccc(-c3cccnc3)cc12 [Compound 1333, N-(2-Chloro-5-(pyrrolidin-1-ylmethyl)phenyl)-5-(pyridin-3-yl)-1H-indazole-3-carboxamide]",9,,,,5100
"COc1ccc(NC(=O)c2n[nH]c3ccc(-c4cncc(N5CC(N)C5)n4)cc23)cn1 [Compound 1334, 5-(6-(3-Aminoazetidin-1-yl)pyrazin-2-yl)-N-(6-methoxypyridin-3-yl)-1H-indazole-3-carboxamide]",2,,,,1500
"CN1CCC(NC(=O)c2n[nH]c3ccc(-c4cnccc4C(F)(F)F)cc23)CC1 [Compound 1340, N-(1-Methylpiperidin-4-yl)-5-(4-(trifluoromethyl)pyridin-3-yl)-1H-indazole-3-carboxamide]",2500,,,,1800
"O=C(Nc1ccc(F)cc1)c1n[nH]c2ccc(-c3cncc(F)c3)cc12 [Compound 1341, N-(4-Fluorophenyl)-5-(5-fluoropyridin-3-yl)-1H-indazole-3-carboxamide]",36,,,,4800
"CC(C)(C)CN1CCC(NC(=O)c2n[nH]c3cc(F)c(-c4cccnc4)cc23)CC1 [Compound 1342, 6-Fluoro-N-(1-neopentylpiperidin-4-yl)-5-(pyridin-3-yl)-1H-indazole-3-carboxamide]",13,,,,1400
"NC1CN(c2cncc(-c3ccc4[nH]nc(C(=O)Nc5cncc(-c6cccc(F)c6)c5)c4c3)n2)C1 [Compound 1344, 5-(6-(3-Aminoazetidin-1-yl)pyrazin-2-yl)-N-(5-(3-fluorophenyl)pyridin-3-yl)-1H-indazole-3-carboxamide]",15,,,,2930
